Columns and labels:
[1] = tested on: methicillin-resistant Staphylococcus aureus (SR3605, ATCC43300); conditions: in combination with β-Lactamase; Mueller-Hinton broth, pH 7.4, 34 °C; ref [8]; cited from earlier work
Text: page 4: 2. Literature survey Table S1. Survey of experimentally proven membrane penetration of POMs according to a search in Scopus (“polyoxometalate” and “membrane penetration”) up to the submission date of the manuscript.

[2] = ref [11]; cited from earlier work
Text: Table 1 Stability of POMs in acidic and neutral pH and membrane transport parameters of different cargo molecules at pH 7.4 | column: Hydrolysis/stability / pH 5.5 ^e); Hydrolysis/stability / pH 7.5 ^f)

[3] = tested on: CHO‐K1 cells; experiment: FITC-Arg8 uptake in live cells, confocal imaging; type: cell-based, Chinese hamster; conditions: carrier 5 µM, 5 min, then FITC-Arg8 5 µM, 30 min, 37 °C, four biological replicates
Experimental: CHO‐K1 cells were plated into µ‐Slide 8‐well plates (ibidi) at a density of ≈1 × 10^5 cells per well (per 1 mL) and incubated for 24 h in Ham's F‐12 medium containing 10% v/v fetal bovine serum and 1.0% penicillin streptomycin at 37 °C in a 5% CO2 atmosphere. The cells were washed twice with Hank's buffer, incubated for 5 min at 37 °C in Ham's F‐12 medium without phenol red with carrier (5 µM), and subsequently in Ham's F‐12 medium without phenol red with 5 µM FITC‐Arg8 for 30 min at 37 °C. Cells in the absence of carrier were used as control. The cells were washed twice with Hank's buffer containing 100 µg mL^−1 heparin and then washed twice with Ham's F‐12 medium without phenol red. The nuclear staining was performed by incubating the cells with 10 µg mL^−1 Hoechst 33 342 (bis‐benzimide H33342 trihydrochloride) for 10 min at 37 °C. Cells were directly imaged as stated above.

Row | Substance | MIC [1] | Hydrolysis/stability pH 7.5 [2] | FITC-Arg8 uptake promoted by carrier [3] | FITC-Arg8 uptake promoted by carrier ([3]; listed as [PW12]3‒)
1 | K4[α‐P^VV^VW^VI 11O40]·4H2O [[PVW11]^4‒] | 800 µg/mL | – | – | –
2 | Na3[α‐P^VW^VI 12O40]·nH2O [[PW12]^3‒] | – | to [P^VW^VI 9O34]^9‒ ^j) | some apparent cellular uptake, but the cell morphology was highly compromised | highly compromised
